According to PMC4138103 (PLoS ONE, 2014):
Where two headings read alike, the source gives them in different places.

System: Sprague-Dawley rats
Assay: Retinoid analyses in liver, serum and kidney
Format: in vivo, Rattus norvegicus
Parameters: key to Kidney Retinyl esters, Dose response / Liver All-trans RA, Dose response / Kidney All-trans RA, Dose response / Serum Retinol, Dose response: D: significant dose response (for results, see Table 2); T: significant trend
Details: for Emax: Rattus norvegicus; for Kidney All-trans RA / Kidney Retinol / Kidney Retinyl esters / Liver 9-cis-4o-13,14-dh RA / Liver All-trans RA / Liver Retinol / Liver Retinyl esters: group mean, N=5
Procedure: Retinoids in liver, serum, and kidney were analyzed according to Schmidt et al.. The polar retinoids 9-cis-retinoic acid (9-cis-RA), 13-cis-retinoic acid (13-cis-RA), 13-cis-4-oxo-retinoic acid (13-cis-4-o-RA), 9-cis-4-oxo-13,14-dihydro-retinoic acid (9-cis-4-o-13,14-dh-RA), all-trans retinoic acid (all-trans RA) and the apolar retinoids retinol and retinyl palmitate were extracted by a single liquid-extraction, separated from each other via solid-phase extraction using an aminopropyl phase, and then injected onto two different HPLC systems that were coupled with UV detection. […] The limits of detection (LOD) for all-trans RA and 9c-4o-13,14-dh-RA were 0.7 and 1.0 pmol/g tissue, and 0.3 and 0.6 pmol/ml serum, respectively. Retinol and retinyl palmitate were separated on a J'sphere ODS-H80 (4.6×150 mm, 4 µm particle size) obtained from YMC (Schermbeck, Germany), and were detected at 325 nm. The LOD for retinol and retinyl palmitate were 5.6 and 5.5 pmol/g tissue, and 4.2 and 4.2 pmol/ml serum, respectively.
Data were also analyzed using the BMD method, which is based on dose-response modeling of the full data set using a nested family of exponential and Hill models. The analyses were done on data of males and females combined, using sex as a covariate. […] In that case, different Critical Effect Doses (CEDs) and CEDs at the lowest bound of the confidence interval (CED-L) were generated for each sex. If no difference between sexes is detected, a CED and CED-Ls for the combined data is generated. However, this was also done if the curve fits are close, and separate analyses for males and females were then performed manually. CEDs and CED-Ls were calculated at the predefined Critical Effect Size (CES) of 5% (EFSA standard) or 10%.

[1] = females, total dose 0-1700 mg/kg bw
[2] = females, total dose 10 mg/kg bw
[3] = females, total dose 30 mg/kg bw
[4] = females, total dose 100 mg/kg bw
[5] = females, total dose 300 mg/kg bw
[6] = females, total dose 1000 mg/kg bw
[7] = females, total dose 1700 mg/kg bw

## Clc1cc(Cl)c(-c2cc(Cl)c(Cl)c(Cl)c2Cl)cc1Cl [PCB 180, 2,2′,3′,4,4′,5,5′-heptachlorobiphenyl]
F, model E4, controls vs high dose according to the fitted model, read-out: Maximum response, Liver 9c-4o-13,14-dh-RA amount
  Emax: -70.3%
F, model E4, controls vs high dose according to the fitted model, read-out: Maximum response, Liver 9c-4o-13,14-dh-RA concentration
  Emax: -78.2%
females, controls vs high dose, fitted model, read-out: Kidney all-trans RA amount, Maximum response
  Emax: 16.5%
females, controls vs high dose, fitted model, read-out: Kidney all-trans RA concentration, Maximum response
  Emax: 19.9%
females, controls vs high dose, fitted model, read-out: Kidney retinol amount, Maximum response
  Emax: 26.9%
females, controls vs high dose, fitted model, read-out: Kidney retinol concentration, Maximum response
  Emax: 27.8%
females, controls vs high dose, fitted model, read-out: Liver 9c-4o-13,14-dh-RA amount, Maximum response
  Emax: -70.3%
females, controls vs high dose, fitted model, read-out: Liver 9c-4o-13,14-dh-RA conc., Maximum response
  Emax: -78.2%
females, controls vs high dose, fitted model, read-out: Liver retinol concentration, Maximum response
  Emax: -42.9%
females, controls vs high dose, fitted model, read-out: Liver retinyl esters amount, Maximum response
  Emax: -29%
females, controls vs high dose, fitted model, read-out: Liver retinyl esters concentration, Maximum response
  Emax: -50.9%
females, controls vs high dose, fitted model, read-out: Serum retinol concentration, Maximum response
  Emax: 23%
males, controls vs high dose, fitted model, read-out: Kidney retinol amount, Maximum response
  Emax: 50.4%
males, controls vs high dose, fitted model, read-out: Kidney retinol concentration, Maximum response
  Emax: 52%
males, controls vs high dose, fitted model, read-out: Kidney retinyl esters amount, Maximum response
  Emax: 260%
males, controls vs high dose, fitted model, read-out: Kidney retinyl esters concentration, Maximum response
  Emax: 254%
males, controls vs high dose, fitted model, read-out: Liver all-trans RA amount, Maximum response
  Emax: 93%
males, controls vs high dose, fitted model, read-out: Liver all-trans RA concentration, Maximum response
  Emax: 21%
males, controls vs high dose, fitted model, read-out: Liver retinol amount, Maximum response
  Emax: -18.1%
males, controls vs high dose, fitted model, read-out: Liver retinol concentration, Maximum response
  Emax: -46.8%
males, controls vs high dose, fitted model, read-out: Liver retinyl esters amount, Maximum response
  Emax: -45.2%
males, controls vs high dose, fitted model, read-out: Liver retinyl esters concentration, Maximum response
  Emax: -62.8%
Model E2, controls vs high dose according to the fitted model, read-out: Maximum response, Kidney retinol amount
  Emax: 49%
Model E2, controls vs high dose according to the fitted model, read-out: Maximum response, Kidney retinol concentration
  Emax: 51.9%
Model E2, controls vs high dose according to the fitted model, read-out: Maximum response, Liver all-trans RA amount
  Emax: 92.7%
Model E2, controls vs high dose according to the fitted model, read-out: Maximum response, Liver all-trans RA concentration
  Emax: 20.7%
Model E2, controls vs high dose according to the fitted model, read-out: Maximum response, Liver retinol amount
  Emax: -18.5%
Model E2, controls vs high dose according to the fitted model, read-out: Maximum response, Liver retinyl esters amount
  Emax: -45.7%
Model E4, controls vs high dose according to the fitted model, read-out: Maximum response, Kidney retinyl esters amount
  Emax: 253%
Model E4, controls vs high dose according to the fitted model, read-out: Maximum response, Kidney retinyl esters concentration
  Emax: 256%
Model E4, controls vs high dose according to the fitted model, read-out: Maximum response, Liver retinol concentration
  Emax: -44.6%
Model E4, controls vs high dose according to the fitted model, read-out: Maximum response, Liver retinyl esters concentration
  Emax: -63.4%
females
  Liver 9c-4o-13,14-dh-RA concentration, max. decrease: 78%
  Liver retinol concentration, max. decrease: 43%
[1]
  Dose response, Kidney All-trans RA: D, T
  Dose response, Kidney Retinol: D, T
  Dose response, Liver 9-cis-4o-13,14-dh RA: D, T
  Dose response, Liver Retinyl esters: D, T
  Kidney All-trans RA, Dose response: D
  Kidney Retinol, Dose response: D, T
  Liver 9-cis-4o-13,14-dh-RA, Dose response: D, T
  Liver Retinol, Dose response: D, T
  Liver Retinyl esters, Dose response: D, T
  Serum Retinol, Dose response: D
females, total dose 3 mg/kg bw
  Kidney All-trans RA: 19.8 pmol
  Kidney Retinol: 8.72 nmol
  Kidney Retinyl esters: 0.77 nmol
  Liver 9-cis-4o-13,14-dh RA: 887 pmol
  Liver All-trans RA: 267 pmol
  Liver Retinol: 0.26 µmol
  Liver Retinyl esters: 11.1 µmol
[2]
  Kidney All-trans RA: 18.2 pmol
  Kidney Retinol: 8.07 nmol
  Kidney Retinyl esters: 0.88 nmol
  Liver 9-cis-4o-13,14-dh RA: 665 pmol
  Liver All-trans RA: 239 pmol
  Liver Retinol: 0.23 µmol
  Liver Retinyl esters: 9.31 µmol
[3]
  Kidney All-trans RA: 19.9 pmol
  Kidney Retinol: 9.25 nmol
  Kidney Retinyl esters: 0.82 nmol
  Liver 9-cis-4o-13,14-dh RA: 691 pmol
  Liver All-trans RA: 231 pmol
  Liver Retinol: 0.25 µmol
  Liver Retinyl esters: 8.81 µmol
[4]
  Kidney All-trans RA: 20.6 pmol
  Kidney Retinol: 8.42 nmol
  Kidney Retinyl esters: 0.71 nmol
  Liver 9-cis-4o-13,14-dh RA: 543 pmol
  Liver All-trans RA: 252 pmol
  Liver Retinol: 0.24 µmol
  Liver Retinyl esters: 9.73 µmol
[5]
  Kidney All-trans RA: 20.2 pmol
  Kidney Retinol: 8.45 nmol
  Kidney Retinyl esters: 0.73 nmol
  Liver 9-cis-4o-13,14-dh RA: 357 pmol
  Liver All-trans RA: 332 pmol
  Liver Retinol: 0.24 µmol
  Liver Retinyl esters: 8.90 µmol
[6]
  Kidney All-trans RA: 21.5 pmol
  Kidney Retinol: 8.95 nmol
  Kidney Retinyl esters: 0.74 nmol
  Liver 9-cis-4o-13,14-dh RA: 226 pmol
  Liver All-trans RA: 296 pmol
  Liver Retinol: 0.24 µmol
  Liver Retinyl esters: 8.28 µmol
[7]
  Kidney All-trans RA: 22.0 pmol
  Kidney Retinol: 10.3 nmol
  Kidney Retinyl esters: 0.75 nmol
  Liver 9-cis-4o-13,14-dh RA: 261 pmol
  Liver All-trans RA: 289 pmol
  Liver Retinol: 0.21 µmol
  Liver Retinyl esters: 6.90 µmol
females, CES 5%, total dose based
  Kidney all-trans RA amount, CED: 494 mg/kg bw
